Patent US20150011751A1, “NOVEL TRIAZINE DERIVATIVE” (CARNA BIOSCIENCES, INC., priority 2012, published 2015)

Columns and labels:
Dephosphorylated BTK = Dephosphorylated BTK (Homo sapiens, UniProt Q06187); test: Test of activity inhibition against dephosphorylated BTK (mobility shift assay)
Procedure: Kinase activity was measured by a mobility shift assay (MSA) method using QuickScout Screening Assist (trademark) MSA (commercially available kit, manufactured by Carna Biosciences, Inc.). FITC-labeled SRCtide peptide supplied with the kit was used as a substrate of a kinase reaction.
IC50 value was calculated by regression analysis of the inhibition ratio and the test compound concentration (logarithm).
Dephosphorylated BTK was obtained by adding a A protein phosphatase (Code No. P0753S, manufactured by New England BioLabs Inc.) and MnCl2 to a biotinylated BTK protein BTN-BTK (manufactured by Carna Biosciences, Inc.) enzyme solution so as to adjust the concentrations to 10 U/μg and 2 mM, respectively, reacting the mixture at 4° C. overnight, removing the A protein phosphatase through anti-[sequence]-tag antibody agarose gel chromatography, and performing buffer exchange using 10DG Desalting Column.

[1] = test system: intracellular BTK (pY223) in Ramos cells; test: cells; conditions: Homo sapiens, read-out: BTK phosphorylation inhibitory activity
Procedure: The supernatant was recovered by a centrifugal operation (at 15,000 rpm for 15 minutes) and the amount of protein was quantitatively determined. The supernatant was mixed with SDS-sample buffer and the mixture was reacted at 95° C. for 5 minutes thereby modifying the protein to obtain a sample solution. […] Thereafter, the protein in the gel was transferred to a PVDF membrane, using an iBlot gel transfer system (Life Technologies Corporation).
The unreacted secondary antibody was washed with TBST buffer and reacted according to the attached protocol, using ECL Prime Western Blotting Detection System (GE Healthcare Ltd.), and then each band was detected by chemiluminescence using a CCD camera (ATTO, Light-CaptureII). The detected band was digitized by densitometry (ATTO CS Analyzer ver.3.0) and an inhibition ratio was calculated from the intensity of a band in each group on the assumption that luminescence of a band of phosphorylated BTK of the compound no-addition and IgM stimulated group is 100%, whereas, luminescence of a band of phosphorylated BTK of the compound no-addition and IgM non-stimulated group is 0%. Each band of phosphorylated BTK was corrected by the total BTK.
Thereafter, IgM (Invitrogen, H15100) diluted with the medium was added so that the final concentration becomes 10 μg/mL, followed by incubation at 37° C. for 10 minutes.
The intracellular BTK autophosphorylation inhibiting activity was indicated with the mark “***” when 70% or more, with the mark “**” when 50% or more and less than 70%, and with the mark “*” when 30% or more and less than 50%.

Sequence of Dephosphorylated BTK (Q06187 whole entry): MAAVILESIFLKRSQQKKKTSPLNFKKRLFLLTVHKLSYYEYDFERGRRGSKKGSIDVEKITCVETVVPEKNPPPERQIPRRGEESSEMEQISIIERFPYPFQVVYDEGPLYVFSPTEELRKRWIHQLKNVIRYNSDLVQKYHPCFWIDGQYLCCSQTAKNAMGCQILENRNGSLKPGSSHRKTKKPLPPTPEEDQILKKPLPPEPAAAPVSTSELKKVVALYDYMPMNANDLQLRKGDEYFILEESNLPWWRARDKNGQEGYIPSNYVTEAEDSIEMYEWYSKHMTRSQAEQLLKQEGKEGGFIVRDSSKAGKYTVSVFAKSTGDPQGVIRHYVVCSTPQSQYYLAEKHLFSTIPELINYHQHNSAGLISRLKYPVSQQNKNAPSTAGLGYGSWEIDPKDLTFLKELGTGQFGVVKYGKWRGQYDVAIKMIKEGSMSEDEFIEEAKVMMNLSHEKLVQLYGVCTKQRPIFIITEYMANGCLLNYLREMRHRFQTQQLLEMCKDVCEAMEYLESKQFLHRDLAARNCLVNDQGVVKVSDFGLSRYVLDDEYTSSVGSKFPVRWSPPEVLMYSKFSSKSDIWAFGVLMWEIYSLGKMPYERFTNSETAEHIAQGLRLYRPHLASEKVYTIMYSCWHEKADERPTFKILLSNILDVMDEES

IC50 (Dephosphorylated BTK) | SMILES | inhibition at 0.3 µM [1]
1.3 nM | Cc1c(NC(=O)c2ccc(C(C)(C)C)cc2)cccc1-c1nc(N)nc(Nc2ccc(C(=O)N3CCOC(CO)C3)cc2)n1 (stereo not drawn) [Example 30, N-{3-[4-Amino-6-({4-[2-(hydroxymethyl)morpho-line-4-carbonyl]phe-nyl}amino)-1,3,5-tria-zin-2-yl]-2-methylphe-nyl}-4-(tert-butyl)benz-amide] | > 70%
1.5 nM | Cc1c(NC(=O)c2ccc(C(C)(C)C)cc2)cccc1-c1nc(N)nc(Nc2ccc(C(=O)N3CCOCC3CO)cc2)n1 (stereo not drawn) [Example 31, N-{3-[4-Amino-6-({4-[3-(hydroxymethyl)morpho-line-4-carbonyl]phe-nyl}amino)-1,3,5-tria-zin-2-yl]-2-methylphe-nyl}-4-(tert-butyl) benzamide] | > 70%
 | Cc1c(-c2nc(N)nc(Nc3ccc(C(=O)N4CCOCC4)cc3)n2)cccc1N1Cc2cc(C(C)(C)C)ccc2C1=O [Example 33, 2-[3-(4-Amino-6-{[4-(morpholine-4-carbonyl)phenyl]amino}-1,3,5-triazin-2-yl)-2-methylphenyl]-5-(tert-butyl)isoindolin-1-one] | > 70%
1.5 nM | Nc1nc(Nc2ccn([C@@H]3CCOC3)c2)nc(-c2cccc(N3CCc4cc(C5CC5)cc(F)c4C3=O)c2CO)n1 [Example 250, (R)-2-[3-(4-Amino-6-{[1-(tetrahydrofuran-3-yl)-1H-pyrrol-3-yl]ami-no}-1,3,5-triazin-2-yl)-2-(hydroyxmethyl)phenyl]-6-cyclopropyl-8-fluoro-3,4-dihydro-isoquinolin-1(2H)-one] | 
0.4 nM | Cn1cc(Nc2nc(N)nc(-c3cccc(N4CCc5cc(C6CC6)cc(F)c5C4=O)c3CO)n2)cc1C(N)=O [Example 251, 4-({4-Amino-6-[3-(6-cyclo-propyl-8-fluoro-1-oxo-3,4-dihydroisoquino-lin-2(1H)-yl)-2-(hydroxy-methyl)phenyl]-1,3,5-triazin-2-yl}ami-no)-1-methyl-1H-pyr-role-2-carboxamide] | 
0.8 nM | CN1CCC(n2cc(Nc3nc(N)nc(-c4cccc(N5CCc6cc(C7CC7)cc(F)c6C5=O)c4CO)n3)cn2)CC1 [Example 252, 2-[3-(4-Amino-6-{[1-(1-methylpiperidin-4-yl)-1H-pyrazol-4-yl]ami-no}-1,3,5-triazin-2-yl)-2-(hydroxymethyl)phenyl]-6-cyclopropyl-8-fluoro-3,4-dihydro-isoquinolin-1(2H)-one] | 
0.8 nM | Nc1nc(Nc2cnn(CC(=O)N3CCOCC3)c2)nc(-c2cccc(N3CCc4cc(C5CC5)cc(F)c4C3=O)c2CO)n1 [Example 253, 2-[3-(4-Amino-6-{[1-(2-morpholino-2-oxoeth-yl)-1H-pyrazol-4-yl]ami-no}-1,3,5-triazin-2-yl)-2-(hydroxymethyl)phenyl]-6-cyclopropyl-8-fluoro-3,4-dihydro-isoquinolin-1(2H)-one] | 
1.4 nM | Nc1nc(Nc2ccn(CC3CCOCC3)c2)nc(-c2cccc(N3CCc4cc(C5CC5)cc(F)c4C3=O)c2CO)n1 [Example 254, 2-{3-[4-Amino-6-({1-[(tetra-hydro-2H-pyran-4-yl)methyl]-1H-pyrrol-3-yl}amino)-1,3,5-tri-azin-2-yl]-2-(hydroxy-methyl)phenyl}-6-cyclo-propyl-8-fluoro-3,4-dihydroisoquinolin-1(2H)-one] | 
0.5 nM | NC(=O)c1cc(Nc2nc(N)nc(-c3cccc(N4CCc5cc(C6CC6)cc(F)c5C4=O)c3CO)n2)c[nH]1 [Example 255, 4-({4-Amino-6-[3-(6-cyclo-propyl-8-fluoro-1-oxo-3,4-dihydroisoquino-lin-2(1H)-yl)-2-(hydroxy-methyl)phenyl]-1,3,5-triazin-2-yl}ami-no)-1H-pyrrole-2-carboxamide] | 
0.6 nM | Nc1nc(Nc2cnn(CC3CCOCC3)c2)nc(-c2cccc(N3CCc4cc(C5CC5)cc(F)c4C3=O)c2CO)n1 [Example 257, 2-{3-[4-Amino-6-({1-[(tetra-hydro-2H-pyran-4-yl)methyl]-1H-pyrazol-4-yl}amino)-1,3,5-triazin-2-yl]-2-(hydroxy-methyl)phenyl}-6-cyclo-propyl-8-fluoro-3,4-dihydroisoquinolin-1(2H)-one] | 
0.9 nM | Nc1nc(Nc2cnn(CC(=O)N3CCCC3)c2)nc(-c2cccc(N3CCc4cc(C5CC5)cc(F)c4C3=O)c2CO)n1 [Example 260, 2-{3-[4-Amino-6-({1-[2-oxo-2-(pyrrolidin-1-yl)ethyl]-1H-pyrazol-4-yl}amino)-1,3,5-tri-azin-2-yl]-2-(hydroxy-methyl)phenyl}-6-cyclo-propyl-8-fluoro-3,4-dihydroisoquinolin-1 (2H)-one] | 
1.5 nM | CC1(Cn2cc(Nc3nc(N)nc(-c4cccc(N5CCc6cc(C7CC7)cc(F)c6C5=O)c4CO)n3)cn2)COC1 [Example 261, 2-{3-[4-Amino-6-({1-[(3-methyloxetan-3-yl)methyl]-1H-pyrazol-4-yl}amino)-1,3,5-triazin-2-yl]-2-(hydroxymeth-yl)phenyl}-6-cyclopro-pyl-8-fluoro-3,4-di-hydroisoquinolin-1(1H)-one] | 
0.8 nM | CCCn1cc(Nc2nc(N)nc(-c3cccc(N4CCc5cc(C6CC6)cc(F)c5C4=O)c3CO)n2)cn1 [Example 262, 2-(3-{4-Amino-6-[(1-pro-pyl-1H-pyrazol-4-yl)amino]-1,3,5-triazin-2-yl}-2-(hydroxymeth-yl)phenyl)-6-cyclopro-pyl-8-fluoro-3,4-dihy-droisoquinolin-1(2H)-one] | 
1.3 nM | NC(=O)Cn1cc(Nc2nc(N)nc(-c3cccc(N4CCc5cc(C6CC6)cc(F)c5C4=O)c3CO)n2)cn1 [Example 266, 2-[4-({4-Amino-6-[3-(6-cyclopropyl-8-fluoro-1-oxo-3,4-dihydroiso-quinolin-2(1H)-yl)-2-(hydroxymethyl)phenyl]-1,3,5-triazin-2-yl}amino)-1H-pyrazol-1-yl]acetamide] | 
1.5 nM | Nc1nc(Nc2cc3n(c2)CCNC3=O)nc(-c2cccc(N3CCc4cc(C5CC5)cc(F)c4C3=O)c2CO)n1 [Example 267, 2-(3-{4-Amino-6-[(1-oxo-1,2,3,4-tetrahydro-pyrrolo[1,2-a]pyrazin-7-yl)amino]-1,3,5-tri-azin-2-yl}-2-(hydroxy-methyl)phenyl)-6-cyclo-propyl-8-fluoro-3,4-dihydroisoquinolin-1 (2H)-one] | 
1.2 nM | CN1CCn2cc(Nc3nc(N)nc(-c4cccc(N5CCc6cc(C7CC7)cc(F)c6C5=O)c4CO)n3)cc2C1=O [Example 268, 2-(3-{4-Amino-6-[(2-meth-yl-1-oxo-1,2,3,4-tetra-hydropyrrolo[1,2-a]pyrazin-7-yl)amino]-1,3,5-triazin-2-yl}-2-(hydroxymethyl)phe-nyl)-6-cyclopropyl-8-fluoro-3,4-dihydroisoquinolin-1(2H)-one] | 
0.8 nM | Cn1cc(Nc2nc(N)nc(-c3cccc(N4CCc5cc(C6CC6)cc(F)c5C4=O)c3CO)n2)cc1C#N [Example 269, 4-({4-Amino-6-[3-(6-cyclo-propyl-8-fluoro-1-oxo-3,4-dihydroisoquino-lin-2(1H)-yl)-2-(hy-droxymethyl)phenyl]-1,3,5-triazin-2-yl}ami-no)-1-methyl-1H-pyrrole-2-carbonitrile] | 
0.7 nM | CC(C1CC1)n1cc(Nc2nc(N)nc(-c3cccc(N4CCc5cc(C6CC6)cc(F)c5C4=O)c3CO)n2)cn1 (stereo not drawn) [Example 270, 2-[3-(4-Amino-6-{[1-(1-cyclopropylethyl)-1H-pyrazol-4-yl]amino}-1,3,5-triazin-2-yl)-2-(hydroxymethyl)phe-nyl]-6-cyclopropyl-8-fluoro-3,4-dihydroiso-quinolin-1(2H)-one] | 
0.4 nM | CCC(C)n1cc(Nc2nc(N)nc(-c3cccc(N4CCc5cc(C6CC6)cc(F)c5C4=O)c3CO)n2)cn1 (stereo not drawn) [Example 271, 2-[3-(4-Amino-6-{[1-(sec-butyl)-1H-pyrazol-4-yl]amino}-1,3,5-tri-azin-2-yl)-2-(hydroxy-methyl)phenyl]-6-cyclo-propyl-8-fluoro-3,4-dihydroisoquinolin-1 (2H)-one] | 
1.1 nM | CN(C)C(=O)c1cc(Nc2nc(N)nc(-c3cccc(N4CCc5cc(C6CC6)cc(F)c5C4=O)c3CO)n2)cn1C [Example 272, 4-({4-Amino-6-[3-(6-cyclo-propyl-8-fluoro-1-oxo-3,4-dihydroisoquino-lin-2(1H)-yl)-2-(hydroxy-methyl)phenyl]-1,3,5-triazin-2-yl}ami-no)-N,N,1-trimethyl-1H-pyrrole-2-carboxamide] | 
2.4 nM | CC1(Cn2cc(Nc3nc(N)nc(-c4cccc(N5CCc6cc(C7CC7)cc(F)c6C5=O)c4CO)n3)cn2)CC1 [Example 273, 2-{3-[4-Amino-6-({1-[(1-methylcyclopropyl)methyl]-1H-pyrazol-4-yl}amino)-1,3,5-triazin-2-yl]-2-(hydroxymeth-yl)phenyl}-6-cyclo-propyl-8-fluoro-3,4-di-hydroisoquinolin-1(2H)-one] | 
1 nM | C=CCn1cc(Nc2nc(N)nc(-c3cccc(N4CCc5cc(C6CC6)cc(F)c5C4=O)c3CO)n2)cn1 [Example 274, 2-(3-{4-[(1-Allyl-1H-pyrazol-4-yl)amino]-6-amino-1,3,5-triazin-2-yl}-2-(hydroxymethyl)phenyl)-6-cyclopropyl-8-fluoro-3,4-dihydro-isoquinolin-1(2H)-one] | 
1.7 nM | Nc1nc(Nc2cnn(CC(F)F)c2)nc(-c2cccc(N3CCc4cc(C5CC5)cc(F)c4C3=O)c2CO)n1 [Example 275, 2-[3-(4-Amino-6-{[1-(2,2-difluoroethyl)-1H-pyrazol-4-yl]amino}-1,3,5-triazin-2-yl)-2-(hydroxymethyl)phenyl]-6-cyclopropyl-8-fluoro-3,4-dihydroisoquinolin-1(2H)-one] | 
3.3 nM | Nc1nc(Nc2ccn(C3CC3)c2)nc(-c2cccc(N3CCc4cc(C5CC5)cc(F)c4C3=O)c2CO)n1 [Example 277, 2-(3-{4-Amino-6-[(1-cyclo-propyl-1H-pyrrol-3-yl)amino]-1,3,5-tri-azin-2-yl}-2-(hydroxy-methyl)phenyl)-6-cyclo-propyl-8-fluoro-3,4-dihydroisoquinolin-1(2H)-one] | 
2.2 nM | CC(C)(O)Cn1cc(Nc2nc(N)nc(-c3cccc(N4CCc5cc(C6CC6)cc(F)c5C4=O)c3CO)n2)cn1 [Example 278, 2-[3-(4-Amino-6-{[1-(2-hydroxy-2-methylpro-pyl)-1H-pyrazol-4-yl]amino}-1,3,5-triazin-2-yl)-2-(hydroxymethyl)phenyl]-6-cyclopropyl-8-fluoro-3,4-dihydro-isoquinolin-1(2H)-one] | 
